Data taken from ChEMBL document CHEMBL1201862, “PubChem BioAssay data set” (2004).
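Five concentrations, 48 hours, 96-well plates. Abbreviation: GI50, concentration required for 50% inhibition of growth.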 Active and inactive are the calls of the source. Rule as the data show it: active = GI50 up to about 1.1 µM and inactive = higher.

What was measured:
Experiment in all cases: NCI tumour cell line growth inhibition, 48 h
[1] = test system: HL-60
[2] = test system: T47D
[3] = test system: M14
[4] = test system: MDA-N
[5] = test system: SK-MEL-2
[6] = test system: SR
[7] = test system: OVCAR-4
[8] = test system: OVCAR-8
[9] = test system: DU-145
[10] = test system: UACC-62
[11] = test system: K562
[12] = test system: M19-MEL
[13] = test system: NCI/ADR-RES
[14] = test system: SNB-19
[15] = test system: CCRF-CEM
[16] = test system: IGROV-1
[17] = test system: SF-539
[18] = test system: TK-10
[19] = test system: RPMI-8226
[20] = test system: KM12

Row | Compound | GI50 [1] | GI50 [2] | GI50 [3] | GI50 [4] | GI50 [5] | GI50 [6] | GI50 [7] | GI50 [8] | GI50 [9] | GI50 [10] | GI50 [11] | GI50 [12] | GI50 [13] | GI50 [14] | GI50 [15] | GI50 [16] | GI50 [17] | GI50 [18] | GI50 [19] | GI50 [20]
1 | CCc1c(CNc2ccc(C(=O)NC(CC(=O)O)C(=O)O)cc2)ccc2nc(N)nc(N)c12 (stereo not given) | < 0.0316 µM (active) | 20.5 µM (inactive) | < 0.01 µM (active) | < 0.01 µM (active) | > 100 µM (inactive) | < 0.01 µM (active) | > 48.8 µM (inactive) | < 0.0184 µM (active) | 0.0125 µM (active) | < 0.0177 µM (active) | < 0.01 µM (active) | 0.133 µM (active) | 0.0288 µM (active) | 2.39 µM (inactive) | < 0.0128 µM (active) | < 0.0177 µM (active) | < 0.0292 µM (active) | 15.3 µM (inactive) | – | –
2 | Cc1nc(N)sc1C(=O)/C=C/c1ccc(/C=C/C(=O)c2sc(NC(=O)CCCCCCCCC(=O)Nc3nc(C)c(C(=O)/C=C/c4ccc(/C=C/C(=O)c5sc(N)nc5C)cc4)s3)nc2C)cc1 | > 100 µM (inactive) | – | > 100 µM (inactive) | – | > 100 µM (inactive) | > 100 µM (inactive) | > 100 µM (inactive) | > 100 µM (inactive) | – | 27.7 µM (inactive) | > 100 µM (inactive) | > 100 µM (inactive) | – | > 100 µM (inactive) | 80.9 µM (inactive) | > 100 µM (inactive) | > 100 µM (inactive) | > 100 µM (inactive) | > 10 µM (inactive) | > 100 µM (inactive)
3 | COc1ccc(N2C(=O)/C(=C/c3ccc(N(CCC#N)CCC#N)cc3C)N=C2/C=C\c2ccccc2)cc1 | 92.7 µM (inactive) | – | 27.1 µM (inactive) | – | > 100 µM (inactive) | 44 µM (inactive) | 47 µM (inactive) | 42.7 µM (inactive) | – | 5.24 µM (inactive) | 40.1 µM (inactive) | 26.5 µM (inactive) | – | > 100 µM (inactive) | 24 µM (inactive) | 68.4 µM (inactive) | 10.8 µM (inactive) | 98.9 µM (inactive) | 41.1 µM (inactive) | 28.1 µM (inactive)
4 | COc1cc(C2(C)SCCCS2)c(I)c(OC)c1OC | > 100 µM (inactive) | – | > 100 µM (inactive) | – | > 100 µM (inactive) | > 100 µM (inactive) | > 100 µM (inactive) | > 100 µM (inactive) | – | > 100 µM (inactive) | 87.5 µM (inactive) | > 100 µM (inactive) | – | > 100 µM (inactive) | > 100 µM (inactive) | > 100 µM (inactive) | > 100 µM (inactive) | > 100 µM (inactive) | > 100 µM (inactive) | > 100 µM (inactive)
5 | O=C1CCN2C(=Nc3cccc4cccc2c34)N1 | > 100 µM (inactive) | – | > 100 µM (inactive) | – | – | > 100 µM (inactive) | > 100 µM (inactive) | > 100 µM (inactive) | – | > 100 µM (inactive) | > 100 µM (inactive) | > 100 µM (inactive) | – | > 100 µM (inactive) | > 100 µM (inactive) | > 100 µM (inactive) | > 100 µM (inactive) | > 100 µM (inactive) | > 100 µM (inactive) | –
6 | CP(C)C.[Ag][I] | > 100 µM (inactive) | – | > 100 µM (inactive) | – | > 100 µM (inactive) | > 100 µM (inactive) | 18.2 µM (inactive) | 50 µM (inactive) | – | > 100 µM (inactive) | > 100 µM (inactive) | > 100 µM (inactive) | – | > 100 µM (inactive) | 22 µM (inactive) | 40.4 µM (inactive) | > 100 µM (inactive) | 41.5 µM (inactive) | > 100 µM (inactive) | > 100 µM (inactive)
7 | CCOC(=O)C1=C(O)C(=O)c2ccsc2C1=O | > 100 µM (inactive) | – | > 100 µM (inactive) | – | > 100 µM (inactive) | > 100 µM (inactive) | > 100 µM (inactive) | > 100 µM (inactive) | – | > 100 µM (inactive) | > 100 µM (inactive) | 20.6 µM (inactive) | – | > 100 µM (inactive) | > 100 µM (inactive) | > 100 µM (inactive) | > 100 µM (inactive) | > 100 µM (inactive) | > 100 µM (inactive) | > 100 µM (inactive)
8 | CCOC(=O)C(NO)C(Sc1ccccc1)c1ccc(OC)cc1 (stereo not given) | – | – | > 100 µM (inactive) | – | > 100 µM (inactive) | > 100 µM (inactive) | – | > 100 µM (inactive) | – | 37.6 µM (inactive) | – | 69.2 µM (inactive) | – | > 100 µM (inactive) | – | > 100 µM (inactive) | > 100 µM (inactive) | > 100 µM (inactive) | 55.3 µM (inactive) | 78.5 µM (inactive)
9 | Cc1cc(NS(=O)(=O)c2ccc(NC(=O)c3ccc(Cl)c4c(Nc5ccc(S(=O)(=O)N=C(N)N)cc5)c5ccccc5nc34)cc2)no1 | – | – | > 100 µM (inactive) | – | – | 27.6 µM (inactive) | 68.5 µM (inactive) | 38.2 µM (inactive) | – | 44.3 µM (inactive) | 39 µM (inactive) | 46.8 µM (inactive) | – | 39.7 µM (inactive) | 28.3 µM (inactive) | – | 30.5 µM (inactive) | > 100 µM (inactive) | 59.7 µM (inactive) | 40.6 µM (inactive)
10 | COc1cc(N)c2[nH]c3c(C)ccc(C)c3c2c1 | > 100 µM (inactive) | – | > 100 µM (inactive) | – | > 100 µM (inactive) | > 100 µM (inactive) | > 100 µM (inactive) | > 100 µM (inactive) | – | – | > 100 µM (inactive) | > 100 µM (inactive) | – | > 100 µM (inactive) | > 100 µM (inactive) | – | > 100 µM (inactive) | > 100 µM (inactive) | > 100 µM (inactive) | > 100 µM (inactive)
11 | O=C(O)C1(c2ccccc2)CCCNCC1 (stereo not given) | – | – | > 100 µM (inactive) | – | > 100 µM (inactive) | > 100 µM (inactive) | > 100 µM (inactive) | > 100 µM (inactive) | – | > 100 µM (inactive) | > 100 µM (inactive) | > 100 µM (inactive) | – | > 100 µM (inactive) | > 100 µM (inactive) | > 100 µM (inactive) | – | > 100 µM (inactive) | > 100 µM (inactive) | > 100 µM (inactive)
12 | COC(=O)/C(=N\NC(=S)NN)C(C(=O)C(=O)Nc1ccccc1C(N)=O)c1nc2ccccc2nc1O (stereo not given) | – | – | > 100 µM (inactive) | – | > 100 µM (inactive) | > 100 µM (inactive) | > 100 µM (inactive) | > 100 µM (inactive) | – | > 100 µM (inactive) | > 100 µM (inactive) | > 100 µM (inactive) | – | > 100 µM (inactive) | > 100 µM (inactive) | > 100 µM (inactive) | > 100 µM (inactive) | > 100 µM (inactive) | > 100 µM (inactive) | > 100 µM (inactive)
13 | O=C(O)c1nccnc1C(=O)O | > 100 µM (inactive) | – | – | – | > 100 µM (inactive) | > 100 µM (inactive) | > 100 µM (inactive) | – | – | > 100 µM (inactive) | > 100 µM (inactive) | > 100 µM (inactive) | – | > 100 µM (inactive) | > 100 µM (inactive) | > 100 µM (inactive) | > 100 µM (inactive) | > 100 µM (inactive) | > 100 µM (inactive) | > 100 µM (inactive)
14 | COC(=O)C1=C(C(=O)OC)C2(C)OC1C(=O)C21CC1 (stereo not given) | 16.7 µM (inactive) | – | 15.3 µM (inactive) | – | > 100 µM (inactive) | 19 µM (inactive) | 10.6 µM (inactive) | 24 µM (inactive) | – | – | 19.8 µM (inactive) | 71 µM (inactive) | – | > 100 µM (inactive) | 16.9 µM (inactive) | 23.2 µM (inactive) | 20.7 µM (inactive) | > 10 µM (inactive) | 16.9 µM (inactive) | 30.5 µM (inactive)
15 | OCn1nc2c(C3OCCO3)cc3ccccc3n2c1=S | > 100 µM (inactive) | – | > 100 µM (inactive) | – | > 100 µM (inactive) | > 100 µM (inactive) | > 100 µM (inactive) | > 100 µM (inactive) | – | > 100 µM (inactive) | > 100 µM (inactive) | > 100 µM (inactive) | – | > 100 µM (inactive) | > 100 µM (inactive) | > 100 µM (inactive) | > 100 µM (inactive) | > 100 µM (inactive) | > 100 µM (inactive) | > 100 µM (inactive)
16 | COc1ccc2[nH]cc(CCNC(C)=O)c2c1 [MELATONIN] | > 100 µM (inactive) | – | > 100 µM (inactive) | – | > 100 µM (inactive) | – | > 100 µM (inactive) | > 100 µM (inactive) | – | > 100 µM (inactive) | 39.1 µM (inactive) | > 100 µM (inactive) | – | > 100 µM (inactive) | > 100 µM (inactive) | > 100 µM (inactive) | > 100 µM (inactive) | > 100 µM (inactive) | 22.1 µM (inactive) | > 100 µM (inactive)
